The numbers were not newly measured in US20110305747A1, “COMBINATION OF DAPSONE WITH OTHER ANTI-ACNE AGENTS” (ALLERGAN, INC., priority 2009, published 2011), which cites them from elsewhere.

In brackets after ≈: the same amount, converted by molar mass.

For one series, the system named is spontaneous comedones. As to conditions: Rhino mouse containing a high density of spontaneous comedones (Allec et al, 1997).
Series [1] deals with CRABPII (cellular retinol-binding protein II).

For the molecule `COc1ccc(-c2ccc3cc(C(=O)O)ccc3c2)cc1C12CC3CC(CC(C3)C1)C2` [adapalene], in the series on spontaneous comedones, the Comedolytic activity entry is “comedolytic activity”. The “Binding to CRABPII” value in series [1] is listed as “does not bind”. In addition, the “mean Cmax of adapalene” value (0.3% adapalene gel on face, chest and back, approx. 2 mg/cm2, Day 10 of treatment, 15 of 16 patients quantifiable (LOQ=0.1 ng/mL)) is 0.553 ± 0.466 ng/mL. For the same molecule, under “0.3% adapalene gel, approx. 2 mg/cm2, Day 10, 15 of the 16 patients”, the “Mean AUC0-24hr” value is 8.37 ± 8.46 ng·h/mL. Also, the “Terminal apparent half-life, mean” value (0.3% adapalene gel, 15 of 16 patients) was 17.2 ± 10.2 h. The “Detection in plasma 72 hours after the last application” value (0.3% adapalene gel, all but one subject) was “not detected”.
In the case of `Nc1ccc(S(=O)(=O)c2ccc(N)cc2)cc1` [dapsone], in the series on P. acnes, the “MIC90 against P. acnes” value is 8 µg/mL (≈ 32.2 µM).
